In PubChem BioAssay (NCI):
Several values for one entry are separate records, joined by “and”; a condition that tells them apart may be missing. Equal entries are not always repeated.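 Following 48 hours of exposure in 96-well plates, responses at five concentrations were used to interpolate endpoints linearly. GI50 is the concentration that inhibits growth by half. At the TGI there is no net growth.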

How the values were obtained:
Assay in all cases: NCI-60 cell line screen, 48 h
786-0 renal = system: 786-0 renal
EKVX NSCLC = system: EKVX NSCLC
HS 578T breast = system: HS 578T breast
NCI-H23 lung = system: NCI-H23 lung
OVCAR-4 ovarian = system: OVCAR-4 ovarian
RPMI-8226 leukemia = system: RPMI-8226 leukemia
SF-295 CNS = system: SF-295 CNS
SK-MEL-2 melanoma = system: SK-MEL-2 melanoma
SK-MEL-28 melanoma = system: SK-MEL-28 melanoma
U251 CNS = system: U251 CNS

SMILES | GI50 (786-0 renal) | TGI (786-0 renal) [µM] | GI50 (EKVX NSCLC) [µM] | TGI (EKVX NSCLC) | GI50 (HS 578T breast) | TGI (HS 578T breast) [µM] | GI50 (NCI-H23 lung) | TGI (NCI-H23 lung) | GI50 (OVCAR-4 ovarian) | TGI (OVCAR-4 ovarian) | GI50 (RPMI-8226 leukemia) | TGI (RPMI-8226 leukemia) | GI50 (SF-295 CNS) | TGI (SF-295 CNS) | GI50 (SK-MEL-2 melanoma) [µM] | TGI (SK-MEL-2 melanoma) | GI50 (SK-MEL-28 melanoma) | TGI (SK-MEL-28 melanoma) | GI50 (U251 CNS) | TGI (U251 CNS)
COc1ccc2c(c1)CC[C@@H]1[C@@H]2CC[C@]2(C)c3c(cc(C(=O)O)c4sccc34)C[C@@H]12 | 16.9 µM | 32.5 | 16.2 | 40.5 µM | 28.7 µM | 96.1 | 18.5 µM | 39.2 µM | 26.3 µM | 79.8 µM | 4.01 µM | 17.7 µM | 14.3 µM | 31.9 µM | 37.5 | > 100 µM | 15.8 µM | 33.4 µM | 16.4 µM | 47.5 µM
COc1cc2c(cc1Cc1cccc(Cl)c1F)c(=O)c(C(=O)O)cn2[C@@H](CO)C(C)C | 3.55 µM | 14.9 | 3.85 | 17.3 µM | 3.97 µM | 32.7 | 3.18 µM | 12.4 µM | 3.7 µM | 16.6 µM | 3.36 µM | 12.5 µM | 2.14 µM | 5.53 µM | 3.98 | 13.8 µM | 6.63 µM | 21.9 µM | 3.17 µM | 12.2 µM
Cc1cc(O)cc(C)c1/C=C/c1cncc(C(N)=O)c1 | 8.6 µM | > 25 | 7.93 | > 25 µM | 1.72 µM | 11.2 | 7.24 µM | > 25 µM | 14.5 µM | > 25 µM | 7.91 µM | > 25 µM | 2.9 µM | > 25 µM | 1.25 | 14 µM | 2.3 µM | > 25 µM | 1.49 µM | > 25 µM
COC(=O)C1=CO[C@@H](OC2OC(CO)C(O)C(O)C2O)[C@H]2[C@@H](C)[C@@H](O)[C@@H](O)[C@@H]12 (stereo partly specified) | – | > 100 | – | > 100 µM | – | > 100 | – | > 100 µM | – | > 100 µM | – | > 100 µM | – | > 100 µM | – | > 100 µM | – | > 100 µM | – | > 100 µM
O=[N+]([O-])c1ccc(C2CC(c3ccccc3)=Nc3ccccc3S2)cc1 (stereo unspecified) | > 100 µM | > 100 | > 100 | > 100 µM | 19.1 µM | > 100 | > 100 µM | > 100 µM | 21.4 µM | > 100 µM | 2.82 µM | 8.29 µM | > 100 µM | > 100 µM | > 100 | > 100 µM | > 100 µM | > 100 µM | 4.7 µM | > 100 µM
O=C([O][Hg][CH2]C1OCCOC1[CH2][Hg][O]C(=O)c1ccccc1)c1ccccc1 (stereo unspecified) | 12.9 µM | 25.5 | 18.3 | 35.5 µM | 16.1 µM | 43.9 | 8.21 µM | 21.3 µM | 6.07 µM | 12.7 µM | 7.5 µM | > 22.6 µM | 17.6 µM | 32.7 µM | 5.05 | – | 5.13 µM | 16.8 µM | 15.1 µM | 28.4 µM
N=N/C(=C\c1c(O)[nH]c2ccccc12)c1ccccc1 | – | > 77 | – | > 92 µM | – | 44.4 | – | > 87.8 µM | – | > 100 µM | – | > 100 µM | – | 66 µM | – | > 100 µM | – | > 100 µM | – | > 83.9 µM
COC(=O)C1=COC(C)C2CN3CCc4c([nH]c5cc(OC)c(OC)cc45)C3CC12 (stereo unspecified) | – | > 100 | – | > 100 µM | – | > 100 | – | > 100 µM | 89.4 µM and 34.3 µM | > 100 µM | – | > 100 µM | – | > 100 µM | – | > 100 µM | > 100 µM and 34.2 µM | > 100 µM | > 100 µM and 47.4 µM | > 100 µM
COc1ccc2c(c1)oc(=O)c1cc(OC)ccc12 | > 100 µM | > 100 | 8.99 | > 100 µM | > 100 µM | > 100 | > 100 µM | > 100 µM | > 100 µM | > 100 µM | > 100 µM | > 100 µM | > 100 µM | > 100 µM | > 100 | > 100 µM | > 100 µM | > 100 µM | > 100 µM | > 100 µM
CC1=CCCC2C1(C)CCC(C)C2(C)Cc1cc(O)ccc1O (stereo unspecified) | – | 20.3 | 7.71 | 22 µM and 18.8 µM | – | 17.9 | 7.38 µM | 20.4 µM and 17.5 µM | 3.58 µM | 24.8 µM and 10.8 µM | – | 9.97 µM and 8.53 µM | 10.4 µM | 23.5 µM and 21 µM | – | 27.9 µM and 24 µM | – | 29.9 µM and 31.1 µM | – | 15.4 µM and 16.5 µM
Cc1nc(-c2nc(-c3ccc(OC(F)(F)F)cc3)no2)nn1Cc1cccc(N2CCC(S(C)(=O)=O)CC2)c1 | 18.4 µM | > 100 | 1.6 | 48.6 µM | > 36.9 µM | > 82.1 | < 0.01 µM | > 100 µM | < 0.0137 µM | > 90.6 µM | – | > 100 µM | 0.0227 µM | > 77 µM | > 35.1 | > 86.5 µM | > 24.7 µM | > 100 µM | > 39.3 µM | > 100 µM
O=c1[nH]c(=O)c2cc3cc(C4CC(O)C(CO)O4)ccc3cc2[nH]1 (stereo unspecified) | > 100 µM | > 100 | > 100 | > 100 µM | > 100 µM | > 100 | > 100 µM | > 100 µM | 58.7 µM | > 100 µM | > 100 µM | > 100 µM | > 100 µM | > 100 µM | 11.3 | > 100 µM | > 100 µM | > 100 µM | > 100 µM | > 100 µM
N#Cc1c(N)n2c(nc1=Nc1ccc(Cl)cc1)sc1cc(Cl)ccc12 | 5.46 µM and 2.5 µM | 5.03 | 10.2 | > 100 µM | 2.98 µM and 1.44 µM | 5.92 | – | 42.4 µM | 9.82 µM | > 100 µM | 1.26 µM | 9.27 µM | 4.12 µM and 3.04 µM | 42.9 µM | 2.01 | – | 5.74 µM and 2.8 µM | > 100 µM | 6.56 µM | > 100 µM
O=[N+]([O-])c1ccc(C2=Nn3c(nnc3-c3ccc(Cl)cc3)SC2)o1 | – | 23 | – | 23.9 µM | – | 18.4 | – | 18.6 µM | – | 6.66 µM | – | 6.37 µM | – | 23.5 µM | – | 27.1 µM | – | 28 µM | – | 31.5 µM
O=C(O)C(C(=O)O)P(=S)(S)c1ccccc1 (stereo unspecified) | – | > 100 | – | > 100 µM | – | > 100 | – | > 100 µM | – | > 100 µM | – | > 100 µM | – | > 100 µM | – | > 100 µM | – | > 100 µM | – | > 100 µM
C[C@@H](NC(=O)/C(C#N)=C/c1ccc([N+](=O)[O-])cc1)c1ccccc1 | 2.54 µM | 8.84 | 6.81 | 20.7 µM | 5.92 µM | > 32.9 | 2.08 µM | 5.02 µM | 2.15 µM | 5.95 µM | 2.23 µM | 5.95 µM | 2.25 µM | 5.49 µM | 3.3 | 8.52 µM | 1.95 µM | 3.83 µM | 1.79 µM | 3.44 µM
O=C1NC2C(=CC(O)C(O)C2O)c2cc3c(cc21)OCO3 (stereo unspecified) | 0.544 µM | 4.93 | 0.285 | 3.06 µM and 2.29 µM | – | 0.55 | 0.325 µM and 0.205 µM | 2 µM and 2.84 µM | 0.159 µM and 0.422 µM | – | 0.5 µM and 0.147 µM | 0.908 µM and 1.67 µM | 0.889 µM and 0.317 µM | 3.26 µM and 2.39 µM | 0.305 | 2.95 µM and 1.43 µM | 0.201 µM | 2.06 µM and 2.88 µM | 0.325 µM and 0.0688 µM | 0.437 µM and 3.07 µM
CN(C)CCCCC(C(=O)CBr)(c1ccccc1)c1ccccc1 | 2.12 µM | 4.37 | 2.22 | 7.42 µM | 3.11 µM | 22.7 | 2.81 µM | 10.8 µM | 1.54 µM | 7.88 µM | 1.96 µM | 5.53 µM | 5.56 µM | 19.2 µM | 2.18 | 6.02 µM | 1.77 µM | 3.49 µM | 3.07 µM | 11.5 µM
